Assay results published in US7297700B2, “Bicycloheteroaryl compounds as P2X7 modulators and uses thereof” (Renovis, Inc., priority 2005, dated 2007).

tested on: IL-1β release from THP-1 cells; test: IL-1β Release Assay (Alternate Method), THP-1 cells; assay type: cell-based, human; conditions: at 0.3 μM; THP-1 cells
Experimental: THP-1 cells (ATCC Cat #285-IF-100) are plated in 96 well plates at a concentration of 200,000 cells per well and allowed to differentiate in RPMI-1640 media (ATCC Cat #30-2001) containing 10% FBS, 100 IU/mL penicillin, 100 ug/mL streptomycin, 100 ng/mL LPS and 100 ng/mL IFN-γ for 16 hours. Following differentiation, the cells are treated for an additional 2 hours in RPMI-1640 media containing 100 IU/mL penicillin, 100 ug/mL streptomycin and fresh LPS at 100 ng/mL. The cells are then pretreated for 30 minutes with the compound of interest at the appropriate concentration in RPMI media containing 100 IU/mL penicillin, 100 ug/mL streptomycin. Following the pretreatment 2′, 3′-O-(4-benzoylbenzoyl)-adenosine 5′-triphosphate (Sigma Aldrich Cat#B6396) is added to a final concentration of 250 uM and the cells incubated for an additional 45 minutes. 30 uL of cell supernatant is then collected and IL-1β levels determined via ELISA (R&D systems Cat. #HSLB50) according to manufacturer's recommendations using the Tecan Safire plate reader. Background adjusted IL-1β levels of drug treated and non-treated cells are used to calculate the percent inhibition.

SMILES | IL-1β % inhibition
COc1ccc(F)cc1CN1CCc2c(ncnc2NC(=O)CC23CC4CC(CC(C4)C2)C3)C1 [Compound 102] | + (compound exhibited 0-25% inhibition at 0.3 μM)
O=C(O)COc1ccc(CN2CCc3c(ncnc3NC(=O)CC34CC5CC(CC(C5)C3)C4)C2)cc1 [Compound 140] | + (compound exhibited 0-25% inhibition at 0.3 μM)
O=C(CC12CC3CC(CC(C3)C1)C2)Nc1ncnc2c1CCN(Cc1ccc3ccccc3n1)C2 [Compound 73] | + (compound exhibited 0-25% inhibition at 0.3 μM)
Cc1ccc(F)c(CN2CCc3c(ncnc3NC(=O)CC34CC5CC(CC(C5)C3)C4)C2)c1Cl [Compound 88] | +++ (compound exhibited 50-75% inhibition at 0.3 μM)
O=C(NCC1CCCCC1)c1ncnc2c1CCN(Cc1ccc(Cl)cc1)C2 [Compound 51] | + (compound exhibited 0-25% inhibition at 0.3 μM)
O=C(CC12CC3CC(CC(C3)C1)C2)Nc1ncnc2c1CCN(C(=O)c1ccc(OC(F)(F)F)cc1)C2 [Compound 228] | + (compound exhibited 0-25% inhibition at 0.3 μM)
Cc1cc(C(=O)N2CCc3c(ncnc3NC(=O)CC34CC5CC(CC(C5)C3)C4)C2)c(C)o1 [Compound 293] | +++ (compound exhibited 50-75% inhibition at 0.3 μM)
O=C(CC12CC3CC(CC(C3)C1)C2)Nc1ncnc2c1CCN(Cc1ccc3c(c1)OCO3)C2 [Compound 321] | ++++ (compound exhibited 75% or greater inhibition at 0.3 μM)
O=C(CC12CC3CC(CC(C3)C1)C2)Nc1ncnc2c1CCN(Cc1cccc(C(F)(F)F)c1)C2 [Compound 70] | + (compound exhibited 0-25% inhibition at 0.3 μM)
CC(C)(C(=O)Nc1ncnc2c1CCN(Cc1ccc(F)cc1F)C2)C12CC3CC(CC(C3)C1)C2 [Compound 347] | + (compound exhibited 0-25% inhibition at 0.3 μM)
O=C(CC12CC3CC(CC(C3)C1)C2)Nc1ncnc2c1CCN(C(=O)c1ccc(Cl)nc1)C2 [Compound 281] | + (compound exhibited 0-25% inhibition at 0.3 μM)
O=C(CC1CCCCC1)Nc1ncnc2c1CCN(Cc1ccccc1)C2 [Compound 9] | + (compound exhibited 0-25% inhibition at 0.3 μM)
CS(=O)(=O)c1ccc(CN2CCc3c(ncnc3C(=O)NCC3CCCCC3)C2)cc1 [Compound 56] | + (compound exhibited 0-25% inhibition at 0.3 μM)
CC12CC3CC(C)(C1)CC(CC(=O)Nc1ncnc4c1CCN(C(=O)c1ccc(Cl)c(Cl)c1)C4)(C3)C2 [Compound 385] | + (compound exhibited 0-25% inhibition at 0.3 μM)
CC(C)(C(=O)Nc1ncnc2c1CCN(S(=O)(=O)c1cccc(Cl)c1)C2)C12CC3CC(CC(C3)C1)C2 [Compound 354] | + (compound exhibited 0-25% inhibition at 0.3 μM)
O=C(CC12CC3CC(CC(C3)C1)C2)Nc1ncnc2c1CCN(Cc1ccc(F)cc1Cl)C2 [Compound 326] | ++ (compound exhibited 25-50% inhibition at 0.3 μM)
CC12CC3CC(C)(C1)CC(CC(=O)Nc1ncnc4c1CCN(C(=O)C1CCCCC1)C4)(C3)C2 [Compound 386] | ++ (compound exhibited 25-50% inhibition at 0.3 μM)
O=C(CC12CC3CC(CC(C3)C1)C2)Nc1ncnc2c1CCN(S(=O)(=O)c1ccc(F)cc1)C2 [Compound 152] | + (compound exhibited 0-25% inhibition at 0.3 μM)
CC(=O)Nc1ccc(CN2CCc3c(ncnc3NC(=O)CC34CC5CC(CC(C5)C3)C4)C2)cc1 [Compound 62] | +++ (compound exhibited 50-75% inhibition at 0.3 μM)
CC(C)(C(=O)Nc1ncnc2c1CCN(C(=O)C1CCCCC1)C2)C12CC3CC(CC(C3)C1)C2 [Compound 366] | + (compound exhibited 0-25% inhibition at 0.3 μM)
CCC(=O)N1CCc2c(ncnc2NC(=O)CC23CC4CC(CC(C4)C2)C3)C1 [Compound 223] | + (compound exhibited 0-25% inhibition at 0.3 μM)
CC(C)(C(=O)Nc1ncnc2c1CCN(C(=O)c1ccc(Cl)c(Cl)c1)C2)C12CC3CC(CC(C3)C1)C2 [Compound 360] | + (compound exhibited 0-25% inhibition at 0.3 μM)
O=C(NCC1CCCCC1)c1ncnc2c1CCNC2 [Compound 2] | + (compound exhibited 0-25% inhibition at 0.3 μM)
O=C(CC12CC3CC(CC(C3)C1)C2)Nc1ncnc2c1CCN(Cc1cccnc1)C2 [Compound 16] | + (compound exhibited 0-25% inhibition at 0.3 μM)
O=C(CC12CC3CC(CC(C3)C1)C2)Nc1ncnc2c1CCN(Cc1ccc3[nH]ccc3c1)C2 [Compound 64] | + (compound exhibited 0-25% inhibition at 0.3 μM)
O=C(NCC12CC3CC(CC(C3)C1)C2)c1ncnc2c1CCN(Cc1ccc3c(c1)OCO3)C2 [Compound 340] | +++ (compound exhibited 50-75% inhibition at 0.3 μM)
O=C(CC12CC3CC(CC(C3)C1)C2)Nc1ncnc2c1CCN(Cc1ccc(F)c(C(F)(F)F)c1)C2 [Compound 106] | + (compound exhibited 0-25% inhibition at 0.3 μM)
COc1ccc(CN2CCc3c(ncnc3NC(=O)CC34CC5CC(CC(C5)C3)C4)C2)cc1OC [Compound 36] | + (compound exhibited 0-25% inhibition at 0.3 μM)
O=C(CC12CC3CC(CC(C3)C1)C2)Nc1ncnc2c1CCN(C(=O)c1cccnc1Oc1ccccc1)C2 [Compound 274] | + (compound exhibited 0-25% inhibition at 0.3 μM)
CC12CC3CC(C)(C1)CC(CC(=O)Nc1ncnc4c1CCN(C(=O)c1cccc(C(F)(F)F)c1)C4)(C3)C2 [Compound 383] | + (compound exhibited 0-25% inhibition at 0.3 μM)

same assay, conditions: at 0.3 μM; THP-1 cells, BzATP-stimulated

SMILES | IL-1β % inhibition
Cc1ccc(CN2CCc3c(ncnc3NC(=O)C34CC5CC(CC(C5)C3)C4)C2)cc1 [Compound 602] | ++ (compound exhibited 25-50% inhibition at 0.3 μM)
O=C(Nc1ncnc2c1CCN(Cc1cccc(Cl)c1)C2)C12CC3CC(CC(C3)C1)C2 [Compound 598] | + (compound exhibited 0-25% inhibition at 0.3 μM)
CC(CCN1CCc2c(ncnc2NC(=O)C23CC4CC(CC(C4)C2)C3)C1)CC(C)(C)C (stereo not shown) [Compound 552] | ++++ (compound exhibited 75% or greater inhibition at 0.3 μM)
O=C(c1cc(Cl)cc(Cl)c1)N1CCc2c(ncnc2NC(=O)C23CC4CC(CC(C4)C2)C3)C1 [Compound 479] | + (compound exhibited 0-25% inhibition at 0.3 μM)
O=C(Nc1ncnc2c1CCN(S(=O)(=O)c1ccc(F)cc1)C2)C12CC3CC(CC(C3)C1)C2 [Compound 490] | +++ (compound exhibited 50-75% inhibition at 0.3 μM)
O=C(Nc1ncnc2c1CCN(S(=O)(=O)Cc1ccc(Cl)cc1)C2)C12CC3CC(CC(C3)C1)C2 [Compound 522] | +++ (compound exhibited 50-75% inhibition at 0.3 μM)
O=C(Nc1ncnc2c1CCN(S(=O)(=O)c1ccc(C(F)(F)F)cc1)C2)C12CC3CC(CC(C3)C1)C2 [Compound 535] | ++ (compound exhibited 25-50% inhibition at 0.3 μM)
O=C(Nc1ncnc2c1CCN(Cc1ccc(Cl)nc1)C2)C12CC3CC(CC(C3)C1)C2 [Compound 634] | + (compound exhibited 0-25% inhibition at 0.3 μM)
O=C(Nc1ncnc2c1CCN(Cc1cc(Br)ccc1F)C2)C12CC3CC(CC(C3)C1)C2 [Compound 618] | + (compound exhibited 0-25% inhibition at 0.3 μM)
Cc1nc(S(=O)(=O)N2CCc3c(ncnc3NC(=O)C34CC5CC(CC(C5)C3)C4)C2)cn1C [Compound 499] | + (compound exhibited 0-25% inhibition at 0.3 μM)
